Values quoted from earlier work as cited in patent US20230117397A1, “PIRFENIDONE FOR CORONAVIRUS TREATMENT” (Excalibur Pharmaceuticals, Inc., priority 2020, published 2023).
Where two headings read alike, the source gives them in different places.

Assays:
IL-10 [1] = settings: pirfenidone pre-treatment; by 3 hours
[2] = oral, healthy adults
TNF-α [3] = settings: pirfenidone added after cell stimulation with endotoxin
IL-10 [4] = settings: once daily 50 mg/kg/day or 100 mg/kg/day; dose dependent
[5] = MALDI-FTICR MSI
[6] = tested on: silicosis (intratracheal silica slurry)
TNF-α [7] = settings: pretreatment 5 minutes before LPS
IL-12 = settings: pirfenidone pre-treatment before LPS
TNF-α [8] = tested on: TNF-α
IL-6 = settings: once daily 50 mg/kg/day or 100 mg/kg/day; dose dependent
[9] = not given; remark: listed apart in the source
IFN-γ [10] = settings: pirfenidone pre-treatment before LPS
TNF-α [11] = settings: once daily 50 mg/kg/day or 100 mg/kg/day; dose dependent
IFN-γ [12] = settings: pirfenidone added after cell stimulation with endotoxin
[13] = not given; remark: listed apart in the source
endotoxic shock = settings: for survival: pretreatment 15 minutes before LPS
[14] = major urinary metabolite of pirfenidone

Structure (SMILES): Cc1ccc(=O)n(-c2ccccc2)c1 [pirfenidone, 5-methyl-1-phenyl-2-(1H)-pyridone]
- IL-10 expression enhanced (IL-10 [1]): approximately 27 fold
- terminal half-life [2]: approximately 2.5 hours
- time to maximum levels in blood ([2]; fasting): 0.5 h
- time to maximum levels in blood ([2]; post food): 2 h
- levels of secreted TNF-α protein (TNF-α [3]): significantly decrease
- steady state levels of TNF-α RNA (TNF-α [3]): did not change
- IL-10 (IL-10 [4]): significant reduction
- T1/2 in kidney tissue ([5]; kidney tissue): 49 min
- T1/2 in liver tissue ([5]; liver tissue): 46 min
- T1/2 in lung tissue ([5]; lung tissue): 67 min
- dose response difference in inflammation and fibrosis ([6]; between the 50 mg/kg/day and 100 mg/kg/day treatment groups): approximately 15%
- inflammation and resulting fibrosis ([6]; once daily 50 mg/kg/day or 100 mg/kg/day): significantly decreased
- TNF-α levels suppressed (TNF-α [7]): 97%
- IL-12 suppressed (IL-12): 84%
- TNF-α expression (TNF-α [8]; 200 mg/kg immediately after LPS): inhibited
- TNF-α expression inhibited (TNF-α [8]; 200 mg/kg, 30 or 60 minutes before or after LPS): not
- time to maximum serum concentration (after dosing): within an hour
- terminal half-life (in vivo): approximately 2 hours
- IL-6 (IL-6): significant reduction
- half-life ([9]; following from the clearance): less than 2 hours
- drug clearance ([9]; oral administration): approximately 30 ml/min/kg
- IFN-γ inhibited (IFN-γ [10]): 91%
- TNF-α (TNF-α [11]): significant reduction
- levels of secreted IFN-γ protein (IFN-γ [12]): significantly decrease
- steady state levels of IFN-γ RNA (IFN-γ [12]): did not change
- most common side effects ([13]; 10% or more greater than placebo): nausea, dyspepsia and rash
- AST/ALT elevation, incidence ([13]; in vivo): < 3%
- bilirubin elevation, incidence ([13]; very rarely): 0.1%
- survival (endotoxic shock; 100 mg/kg, 4/8): 50%
- survival (endotoxic shock; 500 mg/kg, 8/8): 100%
- protection from death (endotoxic shock; pretreatment 3 hours before LPS): partial protection
- protection from death (endotoxic shock; pretreatment 6 hours or more before LPS): none
- survived (survivors/animals) (endotoxic shock; single oral dose 1 hour after LPS): 5/5
- survived (survivors/animals) (endotoxic shock; single oral dose 3 hours after LPS): 4/5
- survived (survivors/animals) (endotoxic shock; single oral dose 5 hours after LPS): 1/5

Structure (SMILES): O=C(O)c1ccc(=O)n(-c2ccccc2)c1 [5-carboxy-pirfenidone]
- biological activity [14]: limited to no biological activity
